Data published in PubChem BioAssay AID248 (DTP/NCI, 2004).
Inconclusive results and toxic doses are left out. No stated cut-off is given here; in the data, active means T/C of 150% or more; inactive means T/C below 125%.

Test system: L1210 leukemia ip in BDF1 mice, survival T/C
Assay: NCI In Vivo Anticancer Drug Screen. Data for tumor model L1210 Leukemia (intraperitoneal) in B6D2F1 (BDF1) mice
Settings: endpoint: mean survival time, higher = longer survival
Summary of the method: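 Transplanted-tumor mice were given test agent; controls received vehicle only. Survival readings from the two groups were divided (treated over control).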

[1] = dose: 100.0 mg/kg/injection, schedule: Q01DX009 (ip), vehicle: Klucel (hydroxypropylcellulose) (HPC)
[2] = dose: 200.0 mg/kg/injection, schedule: Q01DX009 (ip), vehicle: Klucel (hydroxypropylcellulose) (HPC)
[3] = dose: 400.0 mg/kg/injection, schedule: Q01DX009 (ip), vehicle: Klucel (hydroxypropylcellulose) (HPC)
[4] = dose: 100.0 mg/kg/injection, schedule: Q01DX009 (ip), vehicle: saline with Tween-80
[5] = dose: 100.0 mg/kg/injection, schedule: Q04DX003 (ip), vehicle: saline with Tween-80
[6] = dose: 200.0 mg/kg/injection, schedule: Q01DX009 (ip), vehicle: saline with Tween-80
[7] = dose: 200.0 mg/kg/injection, schedule: Q04DX003 (ip), vehicle: saline with Tween-80
[8] = dose: 400.0 mg/kg/injection, schedule: Q04DX003 (ip), vehicle: saline with Tween-80
[9] = dose: 100.0 mg/kg/injection, schedule: Q04DX003 (ip), vehicle: saline
[10] = dose: 200.0 mg/kg/injection, schedule: Q04DX003 (ip), vehicle: saline
[11] = dose: 100.0 mg/kg/injection, schedule: Q01DX001 (ip), vehicle: carboxymethylcellulose (CMC)
[12] = dose: 200.0 mg/kg/injection, schedule: Q01DX001 (ip), vehicle: carboxymethylcellulose (CMC)
[13] = dose: 400.0 mg/kg/injection, schedule: Q01DX001 (ip), vehicle: carboxymethylcellulose (CMC)

Measured: T/C

COc1ccc(S(=O)(=O)Nc2cc([N+](=O)[O-])ccc2OC)cc1
inactive: [1] 103 % of control | [2] 97 % of control | [3] 95 % of control

O=C1c2ccccc2C(=O)c2cc(/C=N/Nc3ccc([N+](=O)[O-])cc3[N+](=O)[O-])ccc21
inactive: dose: 100.0 mg/kg/injection, schedule: Q01DX001 (ip), vehicle: Klucel (hydroxypropylcellulose) (HPC) 93 % of control | dose: 200.0 mg/kg/injection, schedule: Q01DX001 (ip), vehicle: Klucel (hydroxypropylcellulose) (HPC) 90 % of control | dose: 400.0 mg/kg/injection, schedule: Q01DX001 (ip), vehicle: Klucel (hydroxypropylcellulose) (HPC) 86 % of control

OC1CC2CCC1C2 (stereo unspecified)
inactive: [4] 94 % of control | [5] 106 % of control | [6] 105 % of control | [7] 91 % of control | dose: 400.0 mg/kg/injection, schedule: Q01DX009 (ip), vehicle: saline with Tween-80 95 % of control | [8] 88 % of control

C[N+](C)(CCC#N)Cc1ccc(C[N+](C)(C)CCC#N)cc1
inactive: dose: 5.0 mg/kg/injection, schedule: Q01DX001 (ip), vehicle: saline 90 % of control | dose: 10.0 mg/kg/injection, schedule: Q01DX001 (ip), vehicle: saline 95 % of control | dose: 20.0 mg/kg/injection, schedule: Q01DX001 (ip), vehicle: saline 95 % of control

O=C1Oc2ccccc2C1=O
inactive: dose: 50.0 mg/kg/injection, schedule: Q01DX009 (ip), vehicle: saline 98 % of control | dose: 75.0 mg/kg/injection, schedule: Q01DX001 (ip), vehicle: other 101 % of control | dose: 100.0 mg/kg/injection, schedule: Q01DX009 (ip), vehicle: saline 102 % of control | [9] 109 % of control | dose: 150.0 mg/kg/injection, schedule: Q01DX001 (ip), vehicle: other 101 % of control | dose: 200.0 mg/kg/injection, schedule: Q01DX009 (ip), vehicle: saline 91 % of control | [10] 98 % of control

COc1cc2c(c(OC)c1OC)-c1ccc(SC)c(=O)cc1C(N(C)C)CC2 (stereo unspecified)
inactive: [2] 93 % of control

O=C(Nc1cc2ccccc2cc1C(=O)O)Nc1cccc2ccccc12
inactive: [1] 97 % of control | [2] 101 % of control | [3] 100 % of control

O=C(O)C1(Cl)CC2C=CC1C2 (stereo unspecified)
inactive: dose: 50.0 mg/kg/injection, schedule: Q01DX009 (ip), vehicle: gum acacia 99 % of control | dose: 50.0 mg/kg/injection, schedule: Q01DX009 (ip), vehicle: saline with Tween-80 93 % of control | dose: 100.0 mg/kg/injection, schedule: Q01DX009 (ip), vehicle: gum acacia 89 % of control | [4] 96 % of control | dose: 100.0 mg/kg/injection, schedule: Q04DX003 (ip), vehicle: gum acacia 101 % of control | [5] 93 % of control | dose: 200.0 mg/kg/injection, schedule: Q01DX009 (ip), vehicle: gum acacia 92 % of control | [6] 94 % of control | dose: 200.0 mg/kg/injection, schedule: Q04DX003 (ip), vehicle: gum acacia 95 % of control | [7] 91 % of control

C/C(=N\N=C(N)N)c1ccc(N2CCN(c3ccc(/C(C)=N/N=C(N)N)cc3)CC2)cc1
inactive: [11] 94 % of control | [12] 97 % of control | [13] 100 % of control

Nc1cccc(OCc2nc(N)nc(N)c2-c2ccc(Cl)c(Cl)c2)c1
inactive: dose: 100.0 mg/kg/injection, schedule: Q01DX001 (ip), vehicle: saline with Tween-80 97 % of control | dose: 200.0 mg/kg/injection, schedule: Q01DX001 (ip), vehicle: saline with Tween-80 90 % of control

CN(C)Cc1ccccc1COC(=O)c1ccc([N+](=O)[O-])cc1Cl
inactive: dose: 100.0 mg/kg/injection, schedule: Q04DX002 (ip), vehicle: Klucel (hydroxypropylcellulose) (HPC) 102 % of control | dose: 200.0 mg/kg/injection, schedule: Q04DX002 (ip), vehicle: Klucel (hydroxypropylcellulose) (HPC) 109 % of control | dose: 400.0 mg/kg/injection, schedule: Q04DX002 (ip), vehicle: Klucel (hydroxypropylcellulose) (HPC) 94 % of control

O=c1c2ccccc2c2ccccc2n1C(c1ccccc1)c1ccccc1
inactive: dose: 100.0 mg/kg/injection, schedule: Q04DX003 (ip), vehicle: Klucel (hydroxypropylcellulose) (HPC) 98 % of control | dose: 200.0 mg/kg/injection, schedule: Q04DX003 (ip), vehicle: Klucel (hydroxypropylcellulose) (HPC) 88 % of control | dose: 400.0 mg/kg/injection, schedule: Q04DX003 (ip), vehicle: Klucel (hydroxypropylcellulose) (HPC) 88 % of control

CCn1nnnc1-c1ccc(Cl)cc1
inactive: [5] 98 % of control | [7] 98 % of control | [8] 98 % of control

O=C(CCOCc1ccccc1)N1Cc2cc3ccccc3nc2C1
inactive: dose: 10.0 mg/kg/injection, schedule: Q04DX003 (ip), vehicle: alcohol 96 % of control | dose: 20.0 mg/kg/injection, schedule: Q04DX003 (ip), vehicle: alcohol 97 % of control | dose: 40.0 mg/kg/injection, schedule: Q04DX003 (ip), vehicle: alcohol 92 % of control | dose: 80.0 mg/kg/injection, schedule: Q04DX003 (ip), vehicle: alcohol 103 % of control | dose: 160.0 mg/kg/injection, schedule: Q04DX003 (ip), vehicle: alcohol 92 % of control

CCCCCCCCCN(C)C(C)=O
inactive: dose: 75.0 mg/kg/injection, schedule: Q01DX001 (ip), vehicle: carboxymethylcellulose (CMC) 94 % of control | dose: 150.0 mg/kg/injection, schedule: Q01DX001 (ip), vehicle: carboxymethylcellulose (CMC) 91 % of control | dose: 300.0 mg/kg/injection, schedule: Q01DX001 (ip), vehicle: carboxymethylcellulose (CMC) 96 % of control

CC1CC(=O)c2c(O)ccc(O)c21 (stereo unspecified)
inactive: [11] 96 % of control | [12] 89 % of control | [13] 100 % of control

CN(N=O)C(=O)NC(=O)NCCCl
inactive: dose: 4.5 mg/kg/injection, schedule: Q01DX001 (ip), vehicle: carboxymethylcellulose (CMC) 118 % of control | dose: 9.0 mg/kg/injection, schedule: Q01DX001 (ip), vehicle: carboxymethylcellulose (CMC) 115 % of control | dose: 26.0 mg/kg/injection, schedule: Q01DX001 (ip), vehicle: carboxymethylcellulose (CMC) 124 % of control

CCN=C(c1ccc(NC(=O)c2ccc(C(=O)Nc3ccc(C(=NCC)N(CC)C(=O)NC(C)C)cc3)cc2)cc1)N(CC)C(=O)NC(C)C
inactive: dose: 6.0 mg/kg/injection, schedule: Q01DX015 (ip), vehicle: methylcellulose (MC) 89 % of control | dose: 25.0 mg/kg/injection, schedule: Q01DX015 (ip), vehicle: methylcellulose (MC) 102 % of control | dose: 37.0 mg/kg/injection, schedule: Q01DX015 (ip), vehicle: methylcellulose (MC) 96 % of control

COC1C(C(=O)O)=CC=CC1OC(C)=O (stereo unspecified)
inactive: dose: 100.0 mg/kg/injection, schedule: Q01DX001 (ip), vehicle: saline 90 % of control | dose: 200.0 mg/kg/injection, schedule: Q01DX001 (ip), vehicle: saline 102 % of control | dose: 400.0 mg/kg/injection, schedule: Q01DX001 (ip), vehicle: saline 104 % of control

NC1=NC(=O)/C(=C/c2ccco2)S1
inactive: dose: 75.0 mg/kg/injection, schedule: Q01DX001 (ip), vehicle: saline 98 % of control | dose: 150.0 mg/kg/injection, schedule: Q01DX001 (ip), vehicle: saline 93 % of control | dose: 300.0 mg/kg/injection, schedule: Q01DX001 (ip), vehicle: saline 90 % of control

CCSC1C(OC(C)=O)C(C(COC(C)=O)OC(C)=O)OC1n1cc(C)c(=O)[nH]c1=O (stereo unspecified)
inactive: dose: 100.0 mg/kg/injection, schedule: Q01DX005 (ip), vehicle: saline 98 % of control | dose: 200.0 mg/kg/injection, schedule: Q01DX005 (ip), vehicle: saline 100 % of control

CC(C)C(C(=O)O)c1ccccc1 (stereo unspecified)
inactive: [9] 100 % of control | [10] 112 % of control | dose: 400.0 mg/kg/injection, schedule: Q04DX003 (ip), vehicle: saline 107 % of control

CCC1C(=O)C=C(C)OC1=O (stereo unspecified)
inactive: dose: 75.0 mg/kg/injection, schedule: Q01DX009 (ip), vehicle: Klucel (hydroxypropylcellulose) (HPC) 107 % of control | dose: 150.0 mg/kg/injection, schedule: Q01DX009 (ip), vehicle: Klucel (hydroxypropylcellulose) (HPC) 101 % of control | dose: 300.0 mg/kg/injection, schedule: Q01DX009 (ip), vehicle: Klucel (hydroxypropylcellulose) (HPC) 86 % of control
